Patent US11312675B2, “Crystalline polymorphs of 1,6-dibromo-1,6-dideoxy-dulcitol” (Targent, LLC, priority 2015, dated 2022)

Tests used:
[1] = Kellner et al., Nature (1967); cited from earlier work
[2] = reported in the literature; cited from earlier work
[3] = Thermogravimetric analysis (TGA); assay type: physicochemical; details: heating from 25° C. to 450° C. at 10K/min
Description: The analysis was carried out using the Mettler Toledo Stare System with the following parameters. The sample was weighed in an aluminum pan hermetically sealed with an aluminum pierced cover. The analysis was performed heating the sample from 25° C. to 450° C. at 10K/min.

[4] = Stability tests (storage, analysed by XRPD); assay type: physicochemical
Description: The sample was stored in the following conditions (a) 25° C. and 60% RH for 7 days and (b) 60° C. and 75% RH for 3 days. The samples were analyzed after the test by XRPD.

| degradation of the sample (TGA profile) [3] | stability of the crystalline form (XRPD after storage) ([4]; 25° C. and 60% RH for 7 days) | stability of the crystalline form (XRPD after storage) ([4]; 60° C. and 75% RH for 3 days) | SMILES | antitumor effect [1] | solubility [2] |
| --- | --- | --- | --- | --- | --- |
| – | – | – | O[C@H]([C@H](O)[C@@H](O)CBr)[C@H](O)CBr [DBD, 1,6-dibromo-1,6-dideoxy-dulcitol] | selective a vigorous antitumor effect | poorly soluble |
| approximately 170 °C | stable | stable | O[C@H]([C@H](O)[C@@H](O)CBr)[C@H](O)CBr [crystalline DBD polymorph, 1,6-dibromo-1,6-dideoxy-dulcitol] | – | – |
